Experiments:
[1] = tested on: patient derived organoids derived from patient 19004; experiment: Patient derived organoid (PDO) viability, AlamarBlue, FIGS. 53A and 53B; format: cell-based; settings: Homo sapiens, 192 h, ER-positive PDOs categorized into IntClust4, text says 19006 patient (FIGS. 53A and 53B), 8 days treatment, 'on the order of', units given within the value
Procedure: FIGS. 53A and 53B provide viability curves of patient derived organoids derived from patient 19004, generated in accordance with various embodiments of the invention.
To assess breast cancer PDOs, the organoids were digested into single cells with TrypLE (Gibco). Cells are strained with a 100 μm filter then seeded as 10,000 cells per well with 10 μl […] (BME) (Cultrex) in a black, clear bottom 96-well plate and covered with 100 μl breast organoid media. Cells are grown for 4 days to form small spheroids. Cells were treated with 6 concentrations of different targeted Therapies (including but not limited to capivasertib, ipatasertib, PF4706871, M2698, alpelisib), as well as negative control (DMSO) and positive control (Triton X-100) in duplicate for 8 days, with drug media refreshed on day 5. On day 8, the plates are manually checked under the microscope to ensure the positive control drug(s) had effectively killed organoids, and that organoids present in the negative control wells were healthy. Cell viability is assessed using AlamarBlue (Thermofisher) by adding the dye to the media in final concentration of 1:10, followed by incubation for 4 hours at 37° C., and […] measurement using a microplate reader (Molecular Devices). […] Averages of IC50s from two to three independent experiments were calculated and visualized using R. […]

[2] = tested on: PDOs derived from the 19006 patient; experiment: Patient derived organoid (PDO) viability, AlamarBlue, patient 19006; format: cell-based; settings: Homo sapiens, 192 h, ER-positive PDOs categorized into IntClust4, 19006 patient (FIGS. 52A and 52B), 8 days treatment, 'on the order of', units given within the value
Procedure: FIGS. 52A and 52B provide viability curves of patient derived organoids derived from patient 19006, generated in accordance with various embodiments of the invention.
To assess breast cancer PDOs, the organoids were digested into single cells with TrypLE (Gibco). Cells are strained with a 100 μm filter then seeded as 10,000 cells per well with 10 μl […] (BME) (Cultrex) in a black, clear bottom 96-well plate and covered with 100 μl breast organoid media. Cells are grown for 4 days to form small spheroids. Cells were treated with 6 concentrations of different targeted Therapies (including but not limited to capivasertib, ipatasertib, PF4706871, M2698, alpelisib), as well as negative control (DMSO) and positive control (Triton X-100) in duplicate for 8 days, with drug media refreshed on day 5. On day 8, the plates are manually checked under the microscope to ensure the positive control drug(s) had effectively killed organoids, and that organoids present in the negative control wells were healthy. Cell viability is assessed using AlamarBlue (Thermofisher) by adding the dye to the media in final concentration of 1:10, followed by incubation for 4 hours at 37° C., and […] measurement using a microplate reader (Molecular Devices). IC50 values are computed using R package drc. Averages of IC50s from two to three independent experiments were calculated and visualized using R.
Likewise, capivasertib, ipatasertib, and M22698, but not alpelisib and PF4706871, each provide IC50 on the order of 100 nM to 10 μM for PDOs derived from the 19006 patient (FIGS. 53A and 53B).

[3] = tested on: patients with metastatic ER-positive breast cancer; experiment: Progression free survival by molecular subgroup in a prospective cohort of 812 patients; format: in vivo, human; settings: for progression free survival after endocrine therapy, high-risk vs lower risk integrative cluster groups: endocrine therapy (fulvestrant or tamoxifen), pooled, groups averaged together, FIG. 47, adj. P=0.0075
Source text: The ability of chemotherapy, targeted therapies, and endocrine therapies on patients within particular molecular subgroups was examined in a prospective cohort of 812 patients with metastatic ER-positive breast cancer. Provided in FIG. […]

[4] = general statement, no test described; cited from earlier work

## NC(=O)c1cccc2c(N[C@H](CN3CCC3)c3ccc(Cl)c(C(F)(F)F)c3)ncnc12 [M22698]
[1]
  IC50: 0.1 to 10 µM
[2]
  IC50: 0.1 to 10 µM

## CC/C(=C(\c1ccccc1)c1ccc(OCCN(C)C)cc1)c1ccccc1 [tamoxifen]
[3]
  progression free survival after endocrine therapy, high-risk vs lower risk integrative cluster groups: lower risk groups have higher probability of progression free survival than high-risk groups

## Cc1nc(NC(=O)N2CCC[C@H]2C(N)=O)sc1-c1ccnc(C(C)(C)C(F)(F)F)c1 [alpelisib]
[2]
  IC50: 0.1 to 10 µM

## C[C@]12CC[C@@H]3c4ccc(O)cc4C[C@@H](CCCCCCCCC[S+]([O-])CCCC(F)(F)C(F)(F)F)[C@H]3[C@@H]1CC[C@@H]2O (stereo partly drawn) [fulvestrant]
[3]; IntClust1, IntClust2 and IntClust6 patients (averaged together), FIG. 48, adj. P value=0.004
  progression free survival probability, aromatase inhibitor vs fulvestrant treatment: patients receiving an aromatase inhibitor had greater survival probability than patients receiving fulvestrant
[3]; IntClust9 patients, FIG. 49, adj. P value=0.361
  progression free survival probability, fulvestrant vs aromatase inhibitor treatment: slightly, yet insignificantly, greater survival probability
[3]
  progression free survival after endocrine therapy, high-risk vs lower risk integrative cluster groups: lower risk groups have higher probability of progression free survival than high-risk groups
[4]
  oral availability: low

## CN(C)C(=O)c1cc2cnc(Nc3ccc(N4CCNCC4)cn3)nc2n1C1CCCC1 [ribociclib]
[3]; IntClust2 patients, pooled CDK4/6 inhibitor group, FIG. 46, adj. P value=0.016
  progression free survival probability, with vs without CDK4/6 antagonist treatment: profoundly greater survival probability

## CO[C@H]1C[C@@H]2CC[C@@H](C)[C@@](O)(O2)C(=O)C(=O)N2CCCC[C@H]2C(=O)O[C@H]([C@H](C)C[C@@H]2CC[C@@H](OCCO)[C@H](OC)C2)CC(=O)[C@H](C)/C=C(\C)[C@@H](O)[C@@H](OC)C(=O)[C@H](C)C[C@H](C)/C=C/C=C/C=C/1C [everolimus]
[3]; IntClust1 patients, FIG. 45, adj. P value=0.023
  progression free survival probability, with vs without mTOR antagonist treatment: profoundly greater survival probability

## CC(C)NC[C@@H](C(=O)N1CCN(c2ncnc3c2[C@H](C)C[C@H]3O)CC1)c1ccc(Cl)cc1 [ipatasertib]
[1]
  IC50: 0.1 to 10 µM
[2]
  IC50: 0.1 to 10 µM

— patent US20220359084A1, “Methods of Treatments Based Upon Molecular Characterization of Breast Cancer” (The Board of Trustees of the Leland Stanford Junior …, priority 2019, published 2022)
